Experimental data published in patent EP1133986A1, “Use of deramciclane for the treatment of anxiety and depression” (priority 2000, dated 2001).
Read-outs that look alike come from different tables or passages of the source.

Tests used:
[1] = target: T1, serotonin 5-HT2C-receptor (Homo sapiens, UniProt P28335); settings: cited from earlier work
T1 sequence (P28335 33-458): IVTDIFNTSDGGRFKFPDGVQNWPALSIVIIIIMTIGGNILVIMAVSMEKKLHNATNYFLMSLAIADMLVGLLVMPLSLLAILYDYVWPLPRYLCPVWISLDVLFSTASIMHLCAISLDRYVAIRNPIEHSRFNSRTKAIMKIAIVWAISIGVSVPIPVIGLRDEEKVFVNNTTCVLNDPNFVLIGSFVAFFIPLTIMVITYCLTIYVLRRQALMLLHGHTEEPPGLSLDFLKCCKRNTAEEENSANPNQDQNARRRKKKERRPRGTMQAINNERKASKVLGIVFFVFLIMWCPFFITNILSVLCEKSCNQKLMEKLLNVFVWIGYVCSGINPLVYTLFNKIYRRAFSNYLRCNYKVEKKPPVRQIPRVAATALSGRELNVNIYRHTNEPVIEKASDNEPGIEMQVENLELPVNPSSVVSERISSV

rats [2] = settings: single intraperitoneal administration; cited from earlier work
depressive symptoms = test: randomised placebo-controlled double-blind study in GAD, Montgomery Åsberg Depression Rating Scale (MADRS); type: in vivo, humans; settings: GAD patients
Experimental: (§1) The efficacy of deramciclane in the treatment of anxiety, specifically GAD, was studied in a randomised placebo-controlled double-blind study. In addition, the dose-dependency of the effects of deramciclane was evaluated. Total of 208 patients were included in the study. The subjects were randomly assigned to four parallel groups to receive one tablet twice daily (b.i.d) of a placebo, 5mg (=10mg/day), 15mg (=30mg/day), or 30mg (=60mg/day) deramciclane. The study started with a one-week placebo run-in period, followed by an eight-week placebo-controlled active treatment and a two-week placebo washout period.
The efficacy of deramciclane on depressive symptoms was studied using Montgomery Åsberg Depression Rating Scale (MADRS).

[3] = human, cited from earlier work
[4] = parameters: species or system human; settings: in vivo
Experimental: A comparative pharmacokinetic study of orally administered deramciclane in rats, dogs, rabbits and humans (Klebovich et al Pharm. Pharmacol. Commun., 4: 129-136, 1998), it was shown that the plasma concentration curves obtained after the administration of a single 3mg/kg oral dose of deramciclane to rats (dogs, rabbits) and human show considerable species specific differences. […] Thus a 40-times lower oral dose of deramciclane could be used in man to result in the same maximal plasma concentration as in rat. […] Thus over 300 times lower oral doses should result in equal exposure in humans than in rats. Basing only the Cmax difference between rat and man, it can be predicted that considerably lower doss should be centrally acitive in humans than in rat. The minimum oral effective anti-anxiety dose in rats was 1 mg/kg (1-30mg/kg the full range; see above), i.e. in a 70 kg-man this would mean 70 mg dose. […] This would result in 70 mg/40= 1.75 mg (i.e. 0.025 mg/kg) as an effective dose in man.

[5] = rats, 3 mg/kg, cited from earlier work
serotonin 5HT2A-receptor [6] = target: T2, serotonin 5HT2A-receptor (Homo sapiens, UniProt P28223); settings: cited from earlier work
rats [7] = settings: cited from earlier work
[8] = humans, cited from earlier work; for Cmin and Cmax range: repeated administration for one week
serotonin 5HT2A-receptor [9] = target: T2, serotonin 5HT2A-receptor; parameters: serotonin 5-HT2A-receptors in frontal cortex of healthy male volunteers; from tissue; host or cells: frontal cortex of living healthy male volunteers; settings: humans, brain 5HT2A-receptor, single oral dose; cited from earlier work
[10] = test system: anxiety, specifically GAD; test: randomised placebo-controlled double-blind study in GAD, Hamilton Anxiety Scale (HAM-A); type: in vivo, humans; settings: GAD patients
Experimental: as §1
The efficacy of deramciclane on anxiety symptoms was studied by the efficacy variable Hamilton Anxiety Scale (HAM-A), analyzing the change in the score and using responder criterion (at least 50 % reduction in HAM-A total score).

rat = settings: intraperitoneally 1 or 10 mg/kg, 8 times, twice a day, before the test; cited from earlier work
rats [11] = settings: oral doses of 25 and 100 mg/kg; cited from earlier work
mice [12] = settings: oral doses 48-160 mg/kg; cited from earlier work
[13] = rat, cited from earlier work
mice [14] = settings: single subcutaneous administration, 3 mg/kg; cited from earlier work
rats [15] = settings: cited from earlier work; remark: listed apart in the source
[16] = single oral administration, 3 mg/kg

T2 sequence (P28223 whole entry): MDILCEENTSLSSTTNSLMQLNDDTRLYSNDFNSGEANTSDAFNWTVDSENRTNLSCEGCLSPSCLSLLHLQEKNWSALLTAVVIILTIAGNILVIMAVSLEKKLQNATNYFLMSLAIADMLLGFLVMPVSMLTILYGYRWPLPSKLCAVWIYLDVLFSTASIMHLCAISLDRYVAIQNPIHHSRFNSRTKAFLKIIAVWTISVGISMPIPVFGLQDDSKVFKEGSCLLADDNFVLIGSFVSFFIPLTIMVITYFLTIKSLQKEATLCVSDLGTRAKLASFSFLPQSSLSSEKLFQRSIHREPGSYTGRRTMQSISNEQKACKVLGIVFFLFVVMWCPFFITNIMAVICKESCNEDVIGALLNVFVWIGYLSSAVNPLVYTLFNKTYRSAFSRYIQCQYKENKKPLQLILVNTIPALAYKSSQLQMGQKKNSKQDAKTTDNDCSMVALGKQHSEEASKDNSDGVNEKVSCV

factor by which oral dose in man can be lower for the same maximal plasma concentration as in rat [4]: 40 times | factor by which oral doses in humans can be lower for equal exposure as in rats [4]: over 300 times
SMILES: CN(C)CCO[C@]1(c2ccccc2)C[C@H]2CC[C@]1(C)C2(C)C [deramciclane, (lR,2S,4R)-(-)-2-[N,N-(dimethylaminoethoxy)]-2-phenyl-1,7,7-trimethyl-bicyclo[2.2.1]heptane]
antagonism of the receptor [1]: potent antagonist | binding affinity ([1]; in vitro): high affinity | minimum effective dose (social interaction time) (rats [2]): 0.7 mg/kg | effect on MADRS scores (depressive symptoms; 5 mg b.i.d): ineffective | decrease of MADRS scores (depressive symptoms; 15mg b.i.d, p= 0.028): 7.7 points | decrease of MADRS scores (depressive symptoms; 30 mg b.i.d, p= 0.016): 8.0 points | peak plasma concentration (Cmax) ([3]; single 3 mg/kg oral dose): 217.5 ng/mL | mean AUC 0 - ∞ [3, 16]: 3737.8 ng·h/mL | radioactivity in several organs including blood and the brain ([5]; intravenous administration): high radioactivity | radioactivity in organs, especially in the brain ([5]; oral administration, compared with intravenous): substantially lower | antagonism of the receptor (serotonin 5HT2A-receptor [6]): potent antagonist | binding affinity (serotonin 5HT2A-receptor [6]; in vitro): high affinity | minimum oral effective anti-anxiety dose (rats [7]; oral): 1 mg/kg | activity in punished drinking test (rats [7]; single oral administration, 1 mg/kg and 10 mg/kg): active | Cmin and Cmax range ([8]; 20 mg daily dose): 16 to 33 ng/mL | Cmin and Cmax range ([8]; 60 mg daily dose): 48 to 91 ng/mL | Cmax ([8]; single oral administration of 20 mg): 24 ± 9.4 ng/mL | Cmax ([8]; single oral administration of 30 mg): 27 ± 6.1 ng/mL | plasma concentration at 50% receptor occupancy (serotonin 5HT2A-receptor [9]): ~21 ng/mL | plasma concentration at 90% receptor occupancy (serotonin 5HT2A-receptor [9]): about 70 ng/ml | HAM-A score compared with placebo ([10]; 5 mg b.i.d, eight weeks): No difference | responders (at least 50 % reduction in HAM-A scale) ([10]; 5 mg b.i.d. (n=31), placebo 54 %): 57% | decrease of HAM-A score from baseline ([10]; 15 mg b.i.d, eight weeks, p=0.006 versus placebo): 14.5 points | responders (at least 50 % reduction in HAM-A scale) ([10]; 15 mg b.i.d. (n=39), p=0.020 versus placebo): 76% | responders (at least 50 % reduction in HAM-A scale) ([10]; 30 mg b.i.d. (n=37)): 70% | decrease of HAM-A score from baseline ([10]; 30 mg b.i.d., eight weeks, not significant versus placebo): 14.5 points | helpless behaviour induced by inescapable electric foot shocks (rat): dose dependently attenuated | effect in forced swimming test (rats [11]): clearly ineffective | effect on tetrabenazine-induced ptosis (mice [12]): negligible | peak plasma concentration (Cmax) ([13]; single 3 mg/kg oral dose): 5.4 ng/mL | mean AUC 0 - ∞ [13, 16]: 11.9 ng·h/mL | activity in two compartment test (mice [14]): active | caerulein-induced decrease in exploratory behavior (rats [15]; intraperitoneal dose of 0.5 mg/kg): able to attenuate | effect in elevated plus maze test (rats [15]; rats, single intraperitoneal doses 0.1 mg/kg - 5 mg/kg): totally ineffective
